Data on one compound can be found in ChEMBL document CHEMBL2412968, “Tetrazole-based deoxyamodiaquines: synthesis, ADME/PK profiling and pharmacological evaluation as potential antimalarial agents” (Bioorg Med Chem, 2013).

A value given as a limit tells only on which side of the number the result lay.

The subject of one data set is CHO. The experiment in a line: Cytotoxicity against CHO cells by MTT assay. The class given is cell-based. Particulars: Cricetulus griseus; call rule not given here.
A further data set addresses Cytochrome P450 2E1 (Homo sapiens, UniProt P05181). The data set can be described thus: Inhibition of CYP2E1 in human liver microsomes assessed as chlorzoxazone 6-hydroxylation after 20 mins by LC-MS analysis. The class given is ADME, Microsome.
A further data set has as its target T1, Cytochrome P450 2B6 (Homo sapiens, UniProt P20813).
T1 sequence (P20813 whole entry): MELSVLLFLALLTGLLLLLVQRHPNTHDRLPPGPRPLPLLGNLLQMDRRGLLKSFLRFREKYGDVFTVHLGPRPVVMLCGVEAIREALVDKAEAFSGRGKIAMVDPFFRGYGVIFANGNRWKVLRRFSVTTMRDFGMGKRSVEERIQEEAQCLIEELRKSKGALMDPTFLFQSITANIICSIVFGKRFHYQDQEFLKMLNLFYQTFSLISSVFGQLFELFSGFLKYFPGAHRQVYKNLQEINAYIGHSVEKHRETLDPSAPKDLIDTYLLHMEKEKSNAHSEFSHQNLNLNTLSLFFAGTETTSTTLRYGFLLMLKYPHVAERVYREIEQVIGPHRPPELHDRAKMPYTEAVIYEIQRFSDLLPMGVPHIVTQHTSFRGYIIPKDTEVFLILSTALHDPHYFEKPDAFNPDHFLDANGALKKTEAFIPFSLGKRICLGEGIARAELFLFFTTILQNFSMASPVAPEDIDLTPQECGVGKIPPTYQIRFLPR
The data set can be described thus: Inhibition of CYP2B6 in human liver microsomes assessed as bupropion hydroxylation after 20 mins by LC-MS analysis. The class given is ADME, Microsome. (In general: Liver microsomes are vesicles of endoplasmic reticulum, rich in cytochrome P450 enzymes.)

The target in the next data set is T2, Cytochrome P450 2A6 (Homo sapiens, UniProt P11509).
T2 sequence (P11509 whole entry): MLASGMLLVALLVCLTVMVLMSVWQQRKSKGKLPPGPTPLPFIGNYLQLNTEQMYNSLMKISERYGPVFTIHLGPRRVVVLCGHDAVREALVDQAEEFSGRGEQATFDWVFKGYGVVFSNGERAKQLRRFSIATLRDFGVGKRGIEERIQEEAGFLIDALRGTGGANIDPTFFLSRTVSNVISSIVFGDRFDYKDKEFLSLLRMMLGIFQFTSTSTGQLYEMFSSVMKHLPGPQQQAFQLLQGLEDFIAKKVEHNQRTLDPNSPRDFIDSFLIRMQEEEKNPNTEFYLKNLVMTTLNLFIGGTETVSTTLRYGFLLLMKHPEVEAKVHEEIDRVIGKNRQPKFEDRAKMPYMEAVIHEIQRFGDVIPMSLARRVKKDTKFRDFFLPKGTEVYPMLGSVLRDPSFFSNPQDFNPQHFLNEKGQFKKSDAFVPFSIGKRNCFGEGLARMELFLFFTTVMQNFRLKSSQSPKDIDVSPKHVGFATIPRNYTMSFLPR
The data set can be described thus: Inhibition of CYP2A6 in human liver microsomes assessed as coumarin 7-hydroxylation after 20 mins by LC-MS analysis. The format is ADME, Microsome.

Another data set has as its target Cytochrome P450 2D6 (Homo sapiens, UniProt P10635). The experiment in a line: Inhibition of CYP2D6 in human liver microsomes assessed as bufuralol 1'-hydroxylation after 20 mins by LCMS analysis. The class given is ADME, Microsome.
For the next data set, the target named is Cytochrome P450 2C9 (Homo sapiens, UniProt P11712). The data set can be described thus: Inhibition of CYP2C9 in human liver microsomes assessed as diclofenac 4'-hydroxylation after 20 mins by LCMS analysis. The format is ADME, Microsome.
Cytochrome P450 2C9, sequence (P11712 whole entry): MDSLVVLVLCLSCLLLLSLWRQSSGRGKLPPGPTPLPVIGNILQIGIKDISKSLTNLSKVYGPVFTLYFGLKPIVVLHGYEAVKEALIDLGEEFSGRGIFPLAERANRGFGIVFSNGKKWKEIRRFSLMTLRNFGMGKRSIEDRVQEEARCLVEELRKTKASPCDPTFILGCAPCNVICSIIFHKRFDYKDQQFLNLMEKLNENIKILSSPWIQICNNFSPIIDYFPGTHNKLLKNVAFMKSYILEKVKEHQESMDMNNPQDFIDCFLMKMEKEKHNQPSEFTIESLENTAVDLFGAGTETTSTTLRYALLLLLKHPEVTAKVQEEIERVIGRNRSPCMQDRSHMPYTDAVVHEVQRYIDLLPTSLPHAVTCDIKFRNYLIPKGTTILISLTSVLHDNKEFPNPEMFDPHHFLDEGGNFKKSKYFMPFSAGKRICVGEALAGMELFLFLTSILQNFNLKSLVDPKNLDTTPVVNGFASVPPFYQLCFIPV
Another data set deals with T3, Cytochrome P450 2C8 (Homo sapiens, UniProt P10632).
T3 sequence (P10632 whole entry): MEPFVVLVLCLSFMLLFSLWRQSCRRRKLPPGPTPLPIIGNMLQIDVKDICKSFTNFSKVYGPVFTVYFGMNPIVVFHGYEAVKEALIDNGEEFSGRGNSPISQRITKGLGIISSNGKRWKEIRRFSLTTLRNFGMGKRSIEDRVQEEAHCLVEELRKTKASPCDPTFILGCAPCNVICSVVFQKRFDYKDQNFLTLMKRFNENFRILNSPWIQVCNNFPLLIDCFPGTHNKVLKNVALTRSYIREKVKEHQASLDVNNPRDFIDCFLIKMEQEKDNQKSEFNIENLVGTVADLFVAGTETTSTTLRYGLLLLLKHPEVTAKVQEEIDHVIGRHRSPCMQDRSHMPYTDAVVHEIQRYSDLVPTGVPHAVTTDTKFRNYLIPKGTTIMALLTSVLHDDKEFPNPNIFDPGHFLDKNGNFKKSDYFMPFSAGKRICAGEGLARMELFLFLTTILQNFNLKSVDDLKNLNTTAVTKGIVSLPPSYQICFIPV
The experiment in a line: Inhibition of CYP2C8 in human liver microsomes assessed as paclitaxel 6alpha-hydroxylation after 20 mins by LC-MS analysis. The class given is ADME, Microsome.

Another data set addresses T4, Cytochrome P450 1A2 (Homo sapiens, UniProt P05177).
T4 sequence (P05177 whole entry): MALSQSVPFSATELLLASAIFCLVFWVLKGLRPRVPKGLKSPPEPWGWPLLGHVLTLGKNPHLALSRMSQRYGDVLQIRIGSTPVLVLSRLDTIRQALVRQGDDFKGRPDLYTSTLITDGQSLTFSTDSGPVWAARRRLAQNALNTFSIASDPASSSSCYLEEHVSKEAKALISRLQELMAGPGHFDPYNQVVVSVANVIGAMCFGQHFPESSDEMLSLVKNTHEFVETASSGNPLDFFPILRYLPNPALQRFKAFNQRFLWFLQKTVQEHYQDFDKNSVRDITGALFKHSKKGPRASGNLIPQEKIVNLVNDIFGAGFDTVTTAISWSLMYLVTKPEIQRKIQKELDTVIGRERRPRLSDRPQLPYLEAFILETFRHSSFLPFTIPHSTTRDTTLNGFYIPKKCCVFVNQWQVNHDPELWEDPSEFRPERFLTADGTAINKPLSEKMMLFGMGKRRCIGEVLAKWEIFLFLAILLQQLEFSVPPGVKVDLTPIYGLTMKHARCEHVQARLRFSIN
The data set can be described thus: Inhibition of CYP1A2 in human liver microsomes assessed as phenacetin O-deethylation after 20 mins by LC-MS analysis. The class given is ADME, Microsome.

The test system of data set [1] is Liver microsomes. The data set can be described thus: Drug metabolism in human liver microsomes assessed as formation of N-dealkylation product at 5 uM after 1 hr. The class given is ADME, Microsome.
For data set [2], the system named is Liver microsomes. The data set can be described thus: Metabolic stability of the compound in rat liver microsomes at 1 uM after 40 mins. The class given is ADME, Microsome.
Another data set has as its system Hepatocyte. The data set can be described thus: Drug metabolism in human hepatocytes assessed as formation of N-dealkylation product at 5 uM after 1 hr. The format is ADME, cell-based.
Data set [3] concerns Liver microsomes. The data set can be described thus: Metabolic stability of the compound in human liver microsomes at 1 uM after 40 mins. The format is ADME, Microsome.
In data set [4] the test system is Plasmodium falciparum. The experiment in a line: Antiplasmodial activity chloroquine-resistant Plasmodium falciparum W2 using YOYO-1 staining after 48 hrs by FACS analysis. The class given is functional, organism-based. The settings on record: W2, 48 h. (In general: Flow cytometry measures light scatter and fluorescence of single cells or particles in a stream.)

The test system of data set [5] is Plasmodium falciparum. The data set can be described thus: Antiplasmodial activity chloroquine-resistant Plasmodium falciparum K1 infected in human A+ erythrocytes assessed as reduction of [3H]hypoxanthine incorporation after 24 hrs by scintillation counting. The class given is functional, organism-based.
For data set [6], the system named is Plasmodium falciparum. The experiment in a line: Antiplasmodial activity chloroquine-sensitive Plasmodium falciparum 3D7 infected in human A+ erythrocytes assessed as reduction of [3H]hypoxanthine incorporation after 24 hrs by scintillation counting. The format is functional, organism-based.
Data set [7] can be described thus: physchem. Particulars: phosphate buffered saline, pH 7.4.
Data set [8] in a line: physchem. The settings on record: 0.01 M HCl, pH 2.

Cytochrome P450 2D6, sequence (P10635 whole entry): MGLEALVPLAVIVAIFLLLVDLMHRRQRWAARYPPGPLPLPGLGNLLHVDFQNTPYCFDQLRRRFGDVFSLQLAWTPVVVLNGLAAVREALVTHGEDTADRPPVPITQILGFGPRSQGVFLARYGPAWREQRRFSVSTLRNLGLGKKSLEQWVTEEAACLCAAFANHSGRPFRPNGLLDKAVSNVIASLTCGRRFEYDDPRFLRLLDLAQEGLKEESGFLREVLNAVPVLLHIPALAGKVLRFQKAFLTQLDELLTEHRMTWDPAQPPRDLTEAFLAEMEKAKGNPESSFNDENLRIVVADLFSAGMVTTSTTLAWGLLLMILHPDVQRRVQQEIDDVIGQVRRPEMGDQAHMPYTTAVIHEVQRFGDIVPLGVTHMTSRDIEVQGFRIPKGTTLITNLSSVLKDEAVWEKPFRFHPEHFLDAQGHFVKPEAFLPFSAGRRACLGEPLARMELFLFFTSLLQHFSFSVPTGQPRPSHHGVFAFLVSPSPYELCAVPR
Cytochrome P450 2E1, sequence (P05181 whole entry): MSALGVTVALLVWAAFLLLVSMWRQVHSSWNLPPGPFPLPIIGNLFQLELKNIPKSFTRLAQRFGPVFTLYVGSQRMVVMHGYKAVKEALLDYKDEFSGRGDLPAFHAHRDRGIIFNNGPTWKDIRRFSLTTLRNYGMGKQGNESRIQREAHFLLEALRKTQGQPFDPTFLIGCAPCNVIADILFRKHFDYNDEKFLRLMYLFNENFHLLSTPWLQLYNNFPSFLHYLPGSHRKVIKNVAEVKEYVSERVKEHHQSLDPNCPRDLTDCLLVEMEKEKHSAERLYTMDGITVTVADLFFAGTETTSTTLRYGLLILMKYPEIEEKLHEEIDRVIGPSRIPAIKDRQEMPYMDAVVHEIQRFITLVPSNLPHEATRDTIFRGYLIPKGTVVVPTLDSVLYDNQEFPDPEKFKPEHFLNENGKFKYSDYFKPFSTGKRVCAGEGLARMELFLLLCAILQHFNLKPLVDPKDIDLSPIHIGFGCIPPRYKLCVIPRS

Regarding `CCN(CC)C(c1cccc(Nc2ccnc3cc(Cl)ccc23)c1)c1nnnn1C(C)(C)C` (configuration not stated), the IC50 (commonly the concentration that gives 50% inhibition) with CHO is 111000 nM; on Cytochrome P450 2E1 it was above 20000 nM; on Cytochrome P450 2B6, above 20000 nM; at Cytochrome P450 2A6, above 20000 nM; at Cytochrome P450 2D6, 2310 nM; at Cytochrome P450 2C9 it was 2430 nM. Also, the IC50 at Cytochrome P450 2C8 was found to be 220 nM; at Cytochrome P450 1A2, 4330 nM; in the data set with Plasmodium falciparum [4], 66 nM; in the data set on Plasmodium falciparum [5], 6 nM; in the data set on Plasmodium falciparum [6], 100 nM. Further, the Drug metabolism result in the data set with Liver microsomes [1] and in the data set on Hepatocyte was “Active” in each case. Also, the Stability entry in the data set with Liver microsomes [2] and in the data set with Liver microsomes [3] was “Unstable” throughout. In addition, the kinetic solubility (in general, the concentration staying in solution when a stock, usually in DMSO, is diluted into the medium) at 2 h was below 5 µM in “physchem [7]” and above 200 µM in the data set “physchem [8]”.
